The target in data set [1] is T1, CYP3A4 (Homo sapiens, UniProt P08684). The note with it: background statement on 1; cited from earlier work.
For data set [2] the following is noted: ref not given, cited from earlier work.
The next data set concerns Chagas' disease. The note with it: dog, oral 50 mg/kg BID for 14 days; cited from earlier work.
In the next data set the test system is P-glycoprotein. The note with it: ref not given; cited from earlier work.
The test system of a further data set is MDCK cell monolayers. In words: permeability in MDCK cell monolayers. Conditions: in words. It counts as in vitro ADME.
The target in data set [3] is T1, CYP3A4. In words: inhibition of CYP3A4 in vitro. The data set is classed as in vitro ADME.
The nature of data set [4]: stability to cultured liver microsomes. It counts as in vitro ADME. Conditions: in words. In general terms: Liver microsomes are vesicles of endoplasmic reticulum, rich in cytochrome P450 enzymes.
The next data set has as its system T cruzi. The note with it: T cruzi infected mice, 20 mg/kg BID (ip) for 27 days; cited from earlier work.
The test system of another data set is T. cruzi parasites. Conditions: cited from earlier work.
The nature of data set [5]: in vivo PK studies in mice. The note with it: PO 40 mg/kg.
For data set [6], the system named is intracellular T. cruzi in C2C12 host cells. In words: antitrypanosomal high-content imaging assay. The data set is classed as cell-based.

The source of these data is publication PMC4737481 (Bioorganic & medicinal chemistry letters, 2015).

The IC50 is the concentration that gives 50% inhibition.

“Also recorded” adds a separate entry of the source. Read-outs that look alike come from different tables or passages of the source.

T1 sequence (P08684 whole entry): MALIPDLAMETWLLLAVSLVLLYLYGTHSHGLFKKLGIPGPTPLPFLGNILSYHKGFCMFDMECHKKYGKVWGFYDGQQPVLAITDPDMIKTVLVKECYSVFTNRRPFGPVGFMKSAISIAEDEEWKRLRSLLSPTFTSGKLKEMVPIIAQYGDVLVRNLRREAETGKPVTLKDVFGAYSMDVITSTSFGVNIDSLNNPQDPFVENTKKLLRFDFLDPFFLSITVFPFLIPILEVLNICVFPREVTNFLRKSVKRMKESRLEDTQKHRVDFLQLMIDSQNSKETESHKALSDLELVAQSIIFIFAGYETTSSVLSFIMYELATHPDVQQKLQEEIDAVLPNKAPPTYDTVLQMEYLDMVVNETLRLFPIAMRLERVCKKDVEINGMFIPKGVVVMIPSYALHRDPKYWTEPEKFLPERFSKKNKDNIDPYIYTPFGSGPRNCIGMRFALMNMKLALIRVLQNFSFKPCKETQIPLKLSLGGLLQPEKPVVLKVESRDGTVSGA

For `CN1CCN(C(=O)N[C@@H](Cc2ccccc2)C(=O)N[C@H](/C=C/S(=O)(=O)c2ccccc2)CCc2ccccc2)CC1` [Compound 1, K777], the “CYP3A4 inhibition (in words)” value at CYP3A4 [1] was “irreversibly inhibits CYP3A4; also recorded: low μM regime”. The dose-exposure pharmacokinetics entry in data set [2] is listed as “nonlinear dose-exposure pharmacokinetics”. For the same compound, the oral bioavailability in data set [2] (species not stated) was 5–20%. In addition, in the data set with Chagas' disease, the cardiac tissue damage entry is reported as “partially protected animals from cardiac tissue damage” and the parasitemia result was “reduced parasitemia below levels detectable by hemocytometry”. Also, the P-glycoprotein substrate entry in the data set on P-glycoprotein is “substrate for P-glycoprotein”.

As for `CCCCC(C(=O)COc1c(F)c(F)cc(F)c1F)n1cc([C@@](C)(NCc2ccc3ncccc3c2)C(C)C)nn1` (stereo partly drawn) [Compound 4], the “Permeability in an MDCK cell monolayer assay” value with MDCK cell monolayers was “modest-to-low”. Besides, the “CYP3A4 inhibition (in words)” value at CYP3A4 [3] is reported as “low μM regime”. For the same compound, the “stability to cultured liver microsomes” value in [4] is recorded as “reasonable stability”. Moreover, the “hematological cure (treated animals)” value with T cruzi was 2/4. Moreover, in the data set with T. cruzi parasites, the “activity against T. cruzi parasites in two different cell-based assays” value is listed as “effective”.

On to `CCCCC(C(=O)COc1c(F)c(F)cc(F)c1F)n1cc([C@@](C)(NCc2ccc3ncccc3c2)C2CCCC2)nn1` (stereo partly drawn) [Compound 8], for which the “Exposure following PO dosing relative to compound 4” value in data set [5] is reported as “two-fold higher”.

Turning to `CCCCC(C(=O)COc1c(F)c(F)cc(F)c1F)n1cc([C@@](C)(NCc2ccn3nccc3n2)C(C)C)nn1` (stereo partly drawn) [Compound 20], in [6] (Trypanosoma cruzi, C2C12, read-out: T. cruzi IC50), the IC50 worked out at 10 nM.

Regarding `CCCCC(C(=O)COc1c(F)c(F)cc(F)c1F)n1cc([C@@](C)(NCc2ccn3nccc3n2)C2CCCC2)nn1` (stereo partly drawn) [Compound 21], the “improvement of in vitro potency relative to 4” value in data set [6] (assay not specified) is ~ 10 fold. In addition, in [5], the “Exposure following PO dosing relative to compound 4” value is listed as “two-fold higher”.
